# Patent US20190015416A1, “BTK INHIBITORS FOR TREATING NEUROBLASTOMA” (The Chinese University of Hong Kong, priority 2017, published 2019)
# What was measured:
# NBL-S cells = test: MTT proliferation assay; format: cell-based, human; settings: 48 hr treatment or transfection, normalized to DMSO
# Protocol: (§1) FIGS. 5A-5G: BTK signaling regulates cell proliferation. […] MTT were performed to measure the cell viability, the absorbance of treated cell groups was normalized to that of DMSO treated cells. (FIGS. 5C, 5D) MTT assay of NBL-S or SH-SY5Y cells transfected with BTK (FIG. 5C) or BTK siRNA (FIG. 5D) at 48 hr after transfection. […] (FIG. 5E) NBL-S cells and SH-SY5Y cells were treated with the inhibitors either separately or the combinations as indicated, and the treated cells were collected at different time points for MTT assay. The absorbance of treated cell groups was normalized to that of control cells treated with DMSO.
# (§2) Neuroblastoma cells were seeded in 96-well plates at a concentration of 5×10^3 per well. After siRNA transfection or inhibitor treatment for 48 hours, 10 ul MTT ([…]) is added into every well followed by incubation for 4 hours. The absorbance was measured at A570 nm.
# SH-SY5Y cells [1] = test: MTT proliferation assay; format: cell-based, human; settings: 48 hr treatment or transfection, normalized to DMSO
# Protocol: as §1, §2
# SH-SY5Y tumor xenograft = settings: SH-SY5Y xenograft in nude mice
# Description: SH-SY 5Y cells were inoculated into flanks of nude mice. Animals were randomly divided into four groups when tumor xenograft reached 100 mm^3. […] (FIG. 7B) Quantifications of the tumor xenografts weight. The data are expressed as mean values±S.D. (n=4 in each group). **P<0.01. […] Mean±SD values are presented. **p<0.01; *p<0.05. […] (FIG. 7D) Cell proliferations in tumor xenografts were elucidated by immunohistochemical (IHC) analysis with Ki67 antibody. Scale bar represents 50 μm. (FIG. 7E) Quantification of Ki-67-positive cells within the xenografts. Ki-67-positive cells were quantitated from 5 random fields of each tumor xenograft under the microscope (400×) using Image-Pro PLUS V6.0.0.260 software. The values were normalized to those from vehicle treated mice. The data were presented as mean values±S.D. (n=4). **p<0.01; *p<0.05. Apoptosis markers such as cleaved PARP and cleaved Caspase 3 in xenograft tumors were examined by Western blot. […] The signals densities were analyzed by Image J. The relative signals of cleavage PARP to total PARP, cleaved Caspase 3 to tubulin were normalized to those from vehicle treated mice.
# Neuroblastoma xenografts in nude mice were established by injection of SH-SY5Y cells.
# SH-SY5Y cells [2] = test: Cell cycle distribution by flow cytometry; format: cell-based, human; settings: 24 hr, Ibrutinib 2.5 μM, NVP-TAE684 100 nM, Crizotinib 250 nM, control 64.90%
Structure (SMILES),cell proliferation (MTT) (NBL-S cells),cell proliferation (MTT) (SH-SY5Y cells [1]),proliferation of neuroblastoma cells in vivo (Ki67 immunostaining) (SH-SY5Y tumor xenograft; 14 days treatment),cell apoptosis in tumor xenograft (cleaved caspase 3 and PARP) (SH-SY5Y tumor xenograft; Western blot),"growth of neuroblastoma xenograft (SH-SY5Y tumor xenograft; intraperitoneal injection, 14 days)",cell portion at G0/G1 phase (SH-SY5Y cells [2])
C[C@@H](Oc1cc(-c2cnn(C3CCNCC3)c2)cnc1N)c1c(Cl)ccc(F)c1Cl [Crizotinib],can be inhibited,insensitive,inhibited proliferation,potentiated cell apoptosis,only moderately inhibited,
"C=CC(=O)N1CCC[C@@H](n2nc(-c3ccc(Oc4ccccc4)cc3)c3c(N)ncnc32)C1 [Ibrutinib, 1-((R)-3-(4-amino-3-(4-phenoxyphenyl)-1H-pyrazolo[3,4-d]pyrimidin-1-yl)pi-peridin-1-yl)prop-2-en-1-one]",,,,,,73.8%
COc1cc(N2CCC(N3CCN(C)CC3)CC2)ccc1Nc1ncc(Cl)c(Nc2ccccc2S(=O)(=O)C(C)C)n1 [NVP-TAE684],can be inhibited,can be inhibited,,,,
